Data reported in the NIST ThermoML archive (doi:10.1021/acs.jced.7b01135).
± gives the expanded uncertainty stated by the source. One block for each compound: values may come before it.

Columns and labels:
[1] = refractive index (Na D-line) (dimensionless); wn = mass fraction of the nth substance listed; details: 101.3 kPa, Liquid, Standard Abbe refractometry
[2] = wn = mass fraction of the nth substance listed; details: 298.2 K; 101.3 kPa; Liquid; Pycnometric method; w1 = 0.2
[3] = refractive index (Na D-line) (dimensionless); details: 298.2 K; 101.33 kPa; Liquid; Standard Abbe refractometry
[4] = 298.2 K; 101.33 kPa; Liquid; Pycnometric method

refractive index ([1]; 298.2 K, w1 = 0.2): 1.356 ± 0.012
mass density [2]: 1085.86 ± 2 kg/m3
Compound: O=C(O)CC(O)(CC(=O)O)C(=O)O [citric acid] + O

refractive index [3]: 1.4346 ± 0.012
mass density [4]: 826.86 ± 2 kg/m3
Compound: CCCCCCCCCCO [decan-1-ol]

refractive index ([1]; 298.2 K, w2 = 0.9975): 1.33545 ± 0.012
refractive index ([1]; 308.2 K, w2 = 0.9938): 1.33463 ± 0.012
refractive index ([1]; 318.2 K, w2 = 0.9901): 1.33317 ± 0.012
refractive index ([1]; 328.2 K, w2 = 0.9864): 1.33224 ± 0.012
Compound: CCCCCCCCCCO [decan-1-ol] + O

refractive index [3]: 1.3324 ± 0.012
Compound: O [water]
